Test results taken from patent publication US8017612B2, “Piperazine compound and use thereof as a HCV polymerase inhibitor” (priority 2006, dated 2011).
pIC50: −log10 of the molar value. Counter-ions that a name gives are not always drawn.

Assays:
[1] = molecular target: T1, HCV polymerase (NS5B) type 1a (Hepatitis C virus genotype 1a, UniProt P26664); assay: Assay of enzyme (HCV polymerase) inhibitory activity, type 1a enzyme; type: biochemical, HCV type 1a (cloned from the blood of patients); conditions: HCV polymerase inhibitory activity (IC50), 1a, type 1a enzyme 1.5 μg/ml, 25° C., 60 min
T1 construct: made in house; host or cells: Escherichia coli (by the 'similar method' of the 1b enzyme)
How it was run: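 NS5B Δ47 C-term His6 (type 1a, 1.5 μg/ml); substrate RNA 5 μg/ml; ATP/GTP/CTP 50 μM, UTP 2 μM + [5,6-3H]UTP; Tris pH 7.5, MgCl2 5 mM; 25° C, 60 min. TCA/pyrophosphate stop, GF/B filter, scintillation. IC50 vs no-compound control.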

[2] = molecular target: T2, HCV polymerase (NS5B) type 1b (Hepatitis C virus genotype 1b, UniProt P26663); assay: Assay of enzyme (HCV polymerase) inhibitory activity, type 1b enzyme; type: biochemical, HCV BK strain (type 1b); conditions: HCV polymerase inhibitory activity (IC50), 1b, type 1b enzyme 0.5 μg/ml, 25° C., 60 min
T2 construct: a region encoding NS5B (J Virol 1991 March, 65(3), 1105-13, 544 amino acids after deletion of 47 amino acids on the C-terminal); 6xHis (C); made in house; host or cells: Escherichia coli
How it was run: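 Rxn: NS5B 1b (BK, ΔC47, His6) 0.5 μg/ml; substrate RNA 5 μg/ml; ATP/GTP/CTP 50 μM, UTP 2 μM + [5,6-3H]UTP; 20 mM Tris pH 7.5, 5 mM MgCl2, 50 mM NaCl, 1 mM EDTA/DTT. 25 °C, 60 min. Stop with TCA/pyrophosphate, filter, scintillation count; IC50 vs. untreated.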

Question: What does the source list for `CC(C)c1ccc(CNC(=O)[C@H]2CN(c3nc([N+](=O)[O-])n[nH]3)CCN2S(=O)(=O)c2ccc(C(F)(F)F)cc2)cc1` [Example 362, (R)-4-(5-nitro-2H-[1,2,4]triazol-3-yl)-1-(4-trifluoromethyl-benzenesulfonyl)-piperazine-2-carboxylic acid 4-isopropyl-benzylamide]?
Answer: pIC50 [1]: < 6.00; pIC50 [2]: 6.00 to 7.00

Question: With `CCCc1ccc(CNC(=O)[C@H]2CN(c3nc(CC)c(C(=O)O)s3)CCN2S(=O)(=O)c2ccc(OC(F)(F)F)cc2)c(C)c1` [Example 363, 4-ethyl-2-[(R)-3-(2-methyl-4-propyl-benzylcarbamoyl)-4-(4-trifluoromethoxy-benzenesulfonyl)-piperazin-1-yl]-thiazole-5-carboxylic acid] as the compound, how does the pIC50 [1] read?
Answer: > 7.00

Question: What about the pIC50 [2] of the same compound?
Answer: > 7.00

Question: How did the pIC50 [1] turn out when `Cc1cc(C(C)C)ccc1CNC(=O)[C@H]1CN(c2nc(C)c(C(=O)O)s2)CCN1S(=O)(=O)c1ccc(OC(F)(F)F)cc1` [Example 364, 2-[(R)-3-(4-isopropyl-2-methyl-benzylcarbamoyl)-4-(4-trifluoromethoxy-benzenesulfonyl)-piperazin-1-yl]-4-methyl-thiazole-5-carboxylic acid] was run?
Answer: > 7.00

Question: What about the pIC50 [2] of the same compound?
Answer: > 7.00

Question: With `Cc1nc(N2CCN(S(=O)(=O)c3ccc(OC(F)(F)F)cc3)[C@@H](C(=O)NCc3ccc(OC(F)(F)F)cc3)C2)sc1C(=O)O` [Example 365, 4-methyl-2-[(R)-4-(4-trifluoromethoxy-benzenesulfonyl)-3-(4-trifluoromethoxy-benzylcarbamoyl)-piperazin-1-yl]-thiazole-5-carboxylic acid] as the compound, how does the pIC50 [1] read?
Answer: > 7.00

Question: What about the pIC50 [2] of the same compound?
Answer: > 7.00

Question: With `CCc1ccc(CNC(=O)[C@H]2CN(c3nc(C)c(C(=O)O)s3)CCN2S(=O)(=O)c2ccc(OC(F)(F)F)cc2)cc1` [Example 366, 2-[(R)-3-(4-ethyl-benzylcarbamoyl)-4-(4-trifluoromethoxy-benzenesulfonyl)-piperazin-1-yl]-4-methyl-thiazole-5-carboxylic acid] as the compound, how does the pIC50 [1] read?
Answer: > 7.00

Question: What about the pIC50 [2] of the same compound?
Answer: > 7.00

Question: What does the source list for `Cc1nc(N2CCN(S(=O)(=O)c3ccc(OC(F)(F)F)cc3)[C@@H](C(=O)NCc3ccc(C(C)(C)C)cc3)C2)sc1C(=O)O` [Example 367, 2-[(R)-3-(4-tert-butyl-benzylcarbamoyl)-4-(4-trifluoromethoxy-benzenesulfonyl)-piperazin-1-yl]-4-methyl-thiazole-5-carboxylic acid]?
Answer: pIC50 [1]: > 7.00; pIC50 [2]: > 7.00

Question: With `CC(C)c1ccc(CNC(=O)[C@H]2CN(c3nc(N)n[nH]3)CCN2S(=O)(=O)c2ccc(C(F)(F)F)cc2)cc1` [Example 368, (R)-4-(5-amino-2H-[1,2,4]triazol-3-yl)-1-(4-trifluoromethyl-benzenesulfonyl)-piperazine-2-carboxylic acid 4-isopropyl-benzylamide] as the compound, how does the pIC50 [1] read?
Answer: < 6.00

Question: And the pIC50 [2]?
Answer: 6.00 to 7.00

Question: `Cc1nc(N2CCN(S(=O)(=O)c3ccc(OC(F)(F)F)cc3)[C@@H](C(=O)NCc3ccc(C(C)C)cc3)C2)sc1C(=O)N[C@H](C)C(=O)O` [Example 369, (R)-2-({2-[(R)-3-(4-isopropyl-benzylcarbamoyl)-4-(4-trifluoromethoxy-benzenesulfonyl)-piperazin-1-yl]-4-methyl-thiazole-5-carbonyl}-amino)-propionic acid] was tested. Which pIC50 [1] did it give?
Answer: > 7.00

Question: And the pIC50 [2]?
Answer: > 7.00

Question: How did the pIC50 [1] turn out when `Cc1nc(N2CCN(S(=O)(=O)c3ccc(OC(F)(F)F)cc3)[C@@H](C(=O)NCc3ccc(C(C)C)cc3)C2)sc1C(=O)N[C@@H](C)C(=O)O` [Example 370, (S)-2-({2-[(R)-3-(4-isopropyl-benzylcarbamoyl)-4-(4-trifluoromethoxy-benzenesulfonyl)-piperazin-1-yl]-4-methyl-thiazole-5-carbonyl}-amino)-propionic acid] was run?
Answer: 6.00 to 7.00

Question: And the pIC50 [2]?
Answer: > 7.00

Question: With `Cc1nc(N2CCN(S(=O)(=O)c3ccc(C(F)(F)F)cc3)[C@@H](C(=O)NCc3ccc(C(C)C)cc3)C2)oc1C(=O)O` [Example 371, 2-[(R)-3-(4-isopropyl-benzylcarbamoyl)-4-(4-trifluoromethyl-benzenesulfonyl)-piperazin-1-yl]-4-methyl-oxazole-5-carboxylic acid trifluoroacetate] as the compound, how does the pIC50 [1] read?
Answer: 6.00 to 7.00

Question: What about the pIC50 [2] of the same compound?
Answer: 6.00 to 7.00

Question: Which results are given for `CC(C)c1ccc(CNC(=O)[C@H]2CN(c3nc(Br)n[nH]3)CCN2S(=O)(=O)c2ccc(C(F)(F)F)cc2)cc1` [Example 372, (R)-4-(5-bromo-2H-[1,2,4]triazol-3-yl)-1-(4-trifluoromethyl-benzenesulfonyl)-piperazine-2-carboxylic acid 4-isopropyl-benzylamide]?
Answer: pIC50 [1]: 6.00 to 7.00; pIC50 [2]: > 7.00

Question: With `CC(C)c1ccc(CNC(=O)[C@H]2CN(c3ncn[nH]3)CCN2S(=O)(=O)c2ccc(C(F)(F)F)cc2)cc1` [Example 373, (R)-4-(2H-[1,2,4]triazol-3-yl)-1-(4-trifluoromethyl-benzenesulfonyl)-piperazine-2-carboxylic acid 4-isopropyl-benzylamide] as the compound, how does the pIC50 [1] read?
Answer: < 6.00

Question: And the pIC50 [2]?
Answer: 6.00 to 7.00

Question: With `CCCc1ccc(CNC(=O)[C@H]2CN(c3cnc(C(=O)O)cn3)CCN2S(=O)(=O)c2ccc(OC(F)(F)F)cc2)cc1` [Example 374, (R)-3-(4-propyl-benzylcarbamoyl)-4-(4-trifluoromethoxy-benzenesulfonyl)-3,4,5,6-tetrahydro-2H-[1,2′]bipyrazinyl-5′-carboxylic acid] as the compound, how does the pIC50 [1] read?
Answer: > 7.00

Question: What about the pIC50 [2] of the same compound?
Answer: > 7.00

Question: `CCCc1ncc(S(=O)(=O)N2CCN(C(C)=O)C[C@@H]2C(=O)NCc2ccc(C(C)C)cc2)s1` [Example 375, (R)-4-acetyl-1-(2-propyl-thiazole-5-sulfonyl)-piperazine-2-carboxylic acid 4-isopropyl-benzylamide] was tested. Which pIC50 [1] did it give?
Answer: > 7.00

Question: And the pIC50 [2]?
Answer: > 7.00

Question: `CC(C)c1ccc(CNC(=O)[C@H]2CN(c3ccc(C(=O)O)nn3)CCN2S(=O)(=O)c2ccc(C(F)(F)F)cc2)cc1` [Example 376, 6-[(R)-3-(4-isopropyl-benzylcarbamoyl)-4-(4-trifluoromethyl-benzenesulfonyl)-piperazin-1-yl]-pyridazine-3-carboxylic acid] was tested. Which pIC50 [1] did it give?
Answer: > 7.00

Question: What about the pIC50 [2] of the same compound?
Answer: > 7.00

Question: `CC(C)c1ccc(CNC(=O)[C@H]2CN(c3cnc(C(N)=O)cn3)CCN2S(=O)(=O)c2ccc(C(F)(F)F)cc2)cc1` [Example 377, (R)-4-(4-trifluoromethyl-benzenesulfonyl)-3,4,5,6-tetrahydro-2H-[1,2′]bipyrazinyl-3,5′-dicarboxylic acid 5′-amide 3-(4-isopropyl-benzylamide)] was tested. Which pIC50 [1] did it give?
Answer: > 7.00

Question: What about the pIC50 [2] of the same compound?
Answer: > 7.00

Question: With `CCCc1ccc(CNC(=O)[C@H]2CN(c3nc(C)c(C(=O)O)s3)CCN2S(=O)(=O)c2ccc(OC(F)(F)F)cc2)cc1` [Example 378, 4-methyl-2-[(R)-3-(4-propyl-benzylcarbamoyl)-4-(4-trifluoromethoxy-benzenesulfonyl)-piperazin-1-yl]-thiazole-5-carboxylic acid] as the compound, how does the pIC50 [1] read?
Answer: > 7.00

Question: And the pIC50 [2]?
Answer: > 7.00

Question: With `Cc1nc(N2CCN(S(=O)(=O)c3ccc(OC(F)(F)F)cc3)[C@@H](C(=O)NCc3ccc(N(C)C)cc3)C2)sc1C(=O)O` [Example 379, 2-[(R)-3-(4-dimethylamino-benzylcarbamoyl)-4-(4-trifluoromethoxy-benzenesulfonyl)-piperazin-1-yl]-4-methyl-thiazole-5-carboxylic acid hydrochloride] as the compound, how does the pIC50 [1] read?
Answer: > 7.00

Question: And the pIC50 [2]?
Answer: > 7.00
